By pIC50 is commonly meant the IC50 on a negative log10 scale, so that one unit is a factor of ten. Lower therefore signals a high IC50.

SMILES strings stand for the structures. pIC50: −log10 of the molar value.

In the Kinase Knowledgebase extract (Sharma et al. 2016) one finds IC50 data, which are given here for 57 molecules.

This assay has as its target PIK3CB;PIK3CG;PIK3CD;PIK3CA (human) (UniProt P48736). In words: Enzyme Assay.

Turning to `O=C(c1nn([C@H]2CCCN(C3CCOCC3)C2)c2c1CS(=O)(=O)c1c(F)cccc1-2)N1CCOCC1`, the pIC50 is 7.89. In the case of `O=C(c1nn(C2CCN(C3CCOCC3)C2)c2c1CS(=O)(=O)c1c(F)cccc1-2)N1CCOCC1` (configuration not stated) it was 7.54. In turn, `O=C(c1nn(CC2CCCO2)c2c1CS(=O)(=O)c1ccccc1-2)N1CCOCC1` (configuration not stated) gave a pIC50 of 5.81.

`O=C(c1nn(C2CCCNC2)c2c1CS(=O)(=O)c1cc(OC(F)(F)F)ccc1-2)N1CCOCC1` (configuration not stated) had a pIC50 of 4.98. To `COCCCN1CCCC(n2nc(C(=O)N3CCOCC3)c3c2-c2ccccc2S(=O)(=O)C3)C1` (configuration not stated) belongs 6.85. In the case of `CN(C)CCn1nc(C(=O)N2CCOCC2)c2c1-c1ccccc1S(=O)(=O)C2` it was 5.82; in that of `O=C(c1nn(-c2ccccc2)c2c1CS(=O)(=O)c1ccc(F)cc1-2)N1CCOCC1`, 6.01; in that of `COCCN1CCCC(n2nc(C(=O)N3CCOCC3)c3c2-c2ccccc2S(=O)(=O)C3)CC1` (configuration not stated), 6.32. To `CC1COCCN1CCN1CCC[C@H](n2nc(C(=O)N3CCOCC3)c3c2-c2ccccc2S(=O)(=O)C3)C1` (some centres not stated) belongs 7.00.

Consider `COCCN1CCC[C@H](n2nc(C(=O)N3CCOCC3)c3c2-c2cccc(C)c2S(=O)(=O)C3)C1`, for which the pIC50 was 7.02. In the case of `O=C(c1nn(C2CCCN(CCC(C(F)(F)F)C(F)(F)F)C2)c2c1CS(=O)(=O)c1ccccc1-2)N1CCOCC1` (configuration not stated) it was 6.17.

`COC1CCN(Cc2cccc(-n3nc(C(=O)N4CCOCC4)c4c3-c3ccccc3S(=O)(=O)C4)c2)CC1` had a pIC50 of 6.62. `Cn1nc(C(=O)N2CCOCC2)c2c1-c1cccc(Br)c1S(=O)(=O)C2` gave a negative logarithm of the IC50 (pIC50) of 5.96. `O=C(c1nn(-c2ccccc2Cl)c2c1CS(=O)(=O)c1ccccc1-2)N1CCOCC1`: the pIC50 is 5.40. In the case of `Cc1nnc(-c2cccc(-n3nc(C(=O)N4CCOCC4)c4c3-c3ccccc3S(=O)(=O)C4)c2)s1` it was 6.18. To `COCCN1CCC[C@H](n2nc(C(=O)N3CCOCC3)c3c2-c2ccc(OC)cc2S(=O)(=O)C3)C1` belongs 7.03; to `O=C(c1nn(-c2ccccc2)c2c1CS(=O)(=O)c1ccccc1-2)N1CCOC(CO)C1` (configuration not stated), 5.19; to `CC(C)(C)C1CCC(n2nc(C(=O)N3CCOCC3)c3c2-c2ccccc2S(=O)(=O)C3)CC1` (configuration not stated), 5.39. In the case of `CC(C)CCN1CCCC(n2nc(C(=O)N3CCOCC3)c3c2-c2ccccc2S(=O)(=O)C3)C1` (configuration not stated) it was 6.86. With `O=C(c1nn([C@@H]2CCCN(C3CCCOC3)C2)c2c1CS(=O)(=O)c1ncccc1-2)N1CCOCC1` (some centres not stated), the negative-log IC50 (pIC50) was 5.53. With `COCCNCCN1CCC[C@H](n2nc(C(=O)N3CCOCC3)c3c2-c2ccccc2S(=O)(=O)C3)C1`, the pIC50 was 7.47.

Consider `O=C(c1nn(C2CCOC2)c2c1CS(=O)(=O)c1c(F)cccc1-2)N1CCOCC1` (configuration not stated), for which the pIC50 is 6.45. In the case of `CN1CCN(Cc2ccc(-n3nc(C(=O)N4CCOCC4)c4c3-c3ccccc3S(=O)(=O)C4)cn2)CC1` it was 6.47; in that of `CCn1nc(C(=O)N2CCOCC2)c2c1-c1ccccc1S(=O)(=O)C2`, 6.22. To `O=C(c1nn(-c2cccc(Br)c2)c2c1CS(=O)(=O)c1ccccc1-2)N1CCOCC1` belongs 6.21; to `COCCNc1ccc2c(c1)-c1c(c(C(=O)N3CCOCC3)nn1C1CCCCC1)CS2(=O)=O`, 5.86; to `O=C(c1nn(-c2cccc(Nc3ccccc3)c2)c2c1CS(=O)(=O)c1ccccc1-2)N1CCOCC1`, 5.57. To `COc1ccc2c(c1)S(=O)(=O)Cc1c(C(=O)N3CCOCC3)nn(-c3ccccc3)c1-2` belongs 6.46; to `O=C(c1nn(-c2ccc(CN3CCC(F)(F)CC3)cc2)c2c1CS(=O)(=O)c1ccccc1-2)N1CCOCC1`, 6.64; to `O=C(c1cccc(-n2nc(C(=O)N3CCOCC3)c3c2-c2ccccc2S(=O)(=O)C3)c1)N1CCCCC1`, 6.74. `CN1CCN(C(=O)c2cccc(-n3nc(C(=O)N4CCOCC4)c4c3-c3ccccc3S(=O)(=O)C4)c2)CC1`: the pIC50 was 6.60.

Consider `COc1ccc2c(c1)S(=O)(=O)Cc1c(C(=O)N3CCOCC3)nn([C@H]3CCCN(CCN4CC(F)(F)C4)C3)c1-2`, for which the pIC50 was 7.82. In the case of `Cn1nc(C(=O)N2CCOCC2)c2c1-c1ccccc1S(=O)(=O)C2` it was 5.76.

`O=C(c1nn([C@H]2CCCN(Cc3ccncc3)C2)c2c1CS(=O)(=O)c1ccccc1-2)N1CCOCC1` showed a pIC50 of 7.35. `O=C(c1nn(C2CCCCC2)c2c1CS(=O)(=O)c1sccc1-2)N1CCOCC1` showed a pIC50 of 6.52.

`O=C(c1nn(C2CCOCC2)c2c1CS(=O)(=O)c1c(Cl)cccc1-2)N1CCOCC1` gave a negative logarithm of the IC50 (pIC50) of 6.17. In the case of `Cc1ccc2c(c1)-c1c(c(C(=O)N3CCOCC3)nn1-c1ccccc1)CS2(=O)=O` it was 5.82; in that of `CC(C)(C)OC(=O)N1CCC(n2nc(C(=O)N3CCOCC3)c3c2-c2ccccc2S(=O)(=O)C3)CC1`, 6.09; in that of `O=C(c1nn(C2CCN(CCn3cccn3)C2)c2c1CS(=O)(=O)c1ccccc1-2)N1CCOCC1` (configuration not stated), 6.59.

In turn, `O=C(c1nn(C2CCCCCC2)c2c1CS(=O)(=O)c1ccccc1-2)N1CCOCC1` had a pIC50 of 6.33. In the case of `Cc1ccc(-n2nc(C(=O)N3CCOCC3)c3c2-c2ccccc2S(=O)(=O)C3)cc1` it was 6.16; in that of `O=C(c1nn(C2CCN(CCN3CCC(F)CC3)C2)c2c1CS(=O)(=O)c1ccccc1-2)N1CCOCC1` (configuration not stated), 6.83; in that of `O=C(c1nn(CC2CCCC2)c2c1CS(=O)(=O)c1ccccc1-2)N1CCOCC1`, 6.61. In the case of `CC1COCCN1Cc1ccc(-n2nc(C(=O)N3CCOCC3)c3c2-c2ccccc2S(=O)(=O)C3)cc1` (configuration not stated) it was 6.74; in that of `COC1CCN(CCN2CCC[C@H](n3nc(C(=O)N4CCOCC4)c4c3-c3ccccc3S(=O)(=O)C4)C2)C1` (some centres not stated), 7.60. To `O=C(c1nn(-c2cccc(CN3CCS(=O)(=O)CC3)c2)c2c1CS(=O)(=O)c1ccccc1-2)N1CCOCC1` belongs 6.19; to `O=C(c1nn([C@H]2CCCN(c3cccnc3)C2)c2c1CS(=O)(=O)c1ccccc1-2)N1CCOCC1`, 7.32. `O=C(c1nn(CCCO)c2c1CS(=O)(=O)c1ccccc1-2)N1CCOCC1` had a pIC50 of 5.65. With `O=C(c1nn(-c2ccc(CN3CCOCC3)cc2)c2c1CS(=O)(=O)c1ccccc1-2)N1CCOCC1`, the pIC50 is 6.77. To `CN(C)S(=O)(=O)c1cccc(-n2nc(C(=O)N3CCOCC3)c3c2-c2ccccc2S(=O)(=O)C3)c1` belongs 6.19; to `O=C(c1nn(C2CCCN(CCc3ccccc3)C2)c2c1CS(=O)(=O)c1ccccc1-2)N1CCOCC1` (configuration not stated), 6.15; to `COC1CCN(C(=O)c2cccc(-n3nc(C(=O)N4CCOCC4)c4c3-c3ccccc3S(=O)(=O)C4)c2)CC1`, 6.52. To `O=C(c1nn(-c2ccccc2)c2c1CS(=O)(=O)c1cc(Br)ccc1-2)N1CCOCC1` belongs 6.04; to `Cn1nc(C(=O)N2CCOCC2)c2c1-c1cc([N+](=O)[O-])ccc1S(=O)(=O)C2`, 5.56; to `O=C(c1ccc2c(c1)-c1c(c(C(=O)N3CCOCC3)nn1-c1ccccc1)CS2(=O)=O)N1CCCCC1`, 5.47. In the case of `O=C(c1nn(C2CCN(CCn3ccnc3)C2)c2c1CS(=O)(=O)c1ccccc1-2)N1CCOCC1` (configuration not stated) it was 6.78; in that of `O=C(c1nn(CC2CCNCC2)c2c1CS(=O)(=O)c1ccccc1-2)N1CCOCC1`, 6.27.
